Source: PMC12113356, “Novel Anti-MRSA Peptide from Mangrove-Derived Virgibacillus chiguensis FN33 Supported by Genomics and Molecular Dynamics” (Marine Drugs, 2025)
Values after ≈ are worked out from the molar mass of the structure shown. Read-outs that look alike come from different tables or passages of the source.

Assays:
MRSA strain 2468 [1] = experiment: Broth microdilution MIC/MBC (CLSI); format: cell-based; settings: Staphylococcus aureus
Procedure: (§1) The broth microdilution method was performed following the guidelines of the Clinical and Laboratory Standards Institute (CLSI). Test strains including S. aureus TISTR 517 and MRSA strains 142, 1096, and 2468 were cultured on MH agar at 37 °C for 18 h. A single colony from each strain was suspended in 0.85% NaCl until it reached a turbidity of 0.1 OD at 625 nm (1 × 10^8 CFU/mL). The bacterial cells were then diluted to 5 × 10^6 CFU/mL using cation-adjusted Mueller–Hinton broth (CAMHB). Ten microliters of the cell suspension were added to each well of a 96-well plate to make the total volume in each well 100 µL. The AMP was added to achieve final concentrations ranging from 0.125 to 64 µg/mL. Vancomycin and cefoxitin were used as positive controls, while antibiotic-free samples were used as negative controls. The plate was incubated at 37 °C for 24 h. Each experiment was performed in triplicate. The MIC was determined as the lowest concentration that inhibited visible bacterial growth. For the MBC, 100 µL from each dilution was spread on MH agar and incubated at 37 °C for 24 h. The MBC was the lowest concentration at which no bacterial colonies appeared on the agar plates.

MRSA strain 142 [2] = experiment: Broth microdilution MIC/MBC (CLSI); format: cell-based; settings: Staphylococcus aureus
Procedure: as §1

MRSA strain 1096 [3] = experiment: Broth microdilution MIC/MBC (CLSI); format: cell-based; settings: Staphylococcus aureus
Procedure: as §1

MRSA strains = experiment: Broth microdilution MIC/MBC (CLSI), for the MRSA strains together; format: cell-based; settings: Staphylococcus aureus
Procedure: as §1

S. aureus TISTR 517 [4] = experiment: Broth microdilution MIC/MBC (CLSI); format: cell-based, Staphylococcus aureus
Procedure: as §1

MRSA strain 2468 [5] = experiment: Agar well diffusion method; format: cell-based, Staphylococcus aureus; settings: 9 mm wells, MH agar, 37 °C 18 h, antibiotics 30 µg, mean ± SD, n = 3
Procedure: (§2) The optical density of the starter cultures was adjusted to 0.1 OD at 625 nm using 0.85% sterile NaCl solution before transferring 1 mL of the culture into 49 mL of fresh broth. The inoculum was then incubated at 30 °C with shaking at 150 rpm for 3 days. The CFS was obtained by centrifugation at 10,000× g at 4 °C for 15 min and filtered through a 0.2 µm sterile cellulose acetate syringe filter (Sigma-Aldrich, Warren, MI, USA). The antibacterial activity of the isolates was tested against S. aureus TISTR 517, E. coli TISTR 887, K. pneumoniae TISTR 1383, and P. aeruginosa TISTR 357, obtained from the Thailand Institute of Scientific and Technological Research (TISTR), Thailand, and three MRSA strains (strains 142, 1096, and 2468), provided by the medical technology laboratory of the School of Allied Health Sciences, Walailak University, Thailand. The pathogenic bacteria were incubated on MH agar at 37 °C for 18 h to obtain fresh cultures. Colonies of the test pathogens were scraped and suspended in 0.85% sterile NaCl solution. The test pathogen suspensions were adjusted to a turbidity equivalent to 0.1 OD at 625 nm before being spread onto MH agar plates. […] Wells with a diameter of 9 mm were made in the agar using a sterile cork borer. The collected CFS from the bacterial culture was transferred into the wells, and the plates were incubated at 37 °C for 18 h. Cefoxitin (30 µg) and vancomycin (30 µg) (Sigma-Aldrich Co., St. Louis, MO, USA) were used as positive controls. The experiment was repeated in triplicate, and the mean ± SD of the inhibition zone diameters was recorded.

S. aureus TISTR 517 [6] = experiment: Agar well diffusion method; format: cell-based, Staphylococcus aureus; settings: 9 mm wells, MH agar, 37 °C 18 h, antibiotics 30 µg, mean ± SD, n = 3
Procedure: as §2

MRSA strain 142 [7] = experiment: Agar well diffusion method; format: cell-based, Staphylococcus aureus; settings: 9 mm wells, MH agar, 37 °C 18 h, antibiotics 30 µg, mean ± SD, n = 3
Procedure: as §2

MRSA strain 1096 [8] = experiment: Agar well diffusion method; format: cell-based, Staphylococcus aureus; settings: 9 mm wells, MH agar, 37 °C 18 h, antibiotics 30 µg, mean ± SD, n = 3
Procedure: as §2

P. aeruginosa TISTR 357 = experiment: Agar well diffusion method; format: cell-based; settings: 9 mm wells, MH agar, 37 °C 18 h, antibiotics 30 µg, mean ± SD, n = 3
Procedure: as §2

E. coli TISTR 887 = experiment: Agar well diffusion method; format: cell-based; settings: 9 mm wells, MH agar, 37 °C 18 h, antibiotics 30 µg, mean ± SD, n = 3
Procedure: as §2

K. pneumoniae TISTR 1383 = experiment: Agar well diffusion method; format: cell-based; settings: 9 mm wells, MH agar, 37 °C 18 h, antibiotics 30 µg, mean ± SD, n = 3
Procedure: as §2

MRSA strain 2468 [9] = experiment: Compatibility with surfactants (activity retention by agar well diffusion); format: physicochemical, Staphylococcus aureus; settings: surfactant 1% w/v alone, no AMP, agar well diffusion, % of untreated FN33 AMP sample, mean ± SD, n = 3
Procedure: The AMP solution was prepared in sterile purified water and adjusted to a final concentration of 32 µg/mL. To determine thermal stability, the AMP was exposed to temperatures of 30, 40, 60, 80, and 100 °C, as well as to autoclaving at 121 °C and 15 psi for 15 and 30 min. The susceptibility of the AMP to enzymatic degradation was examined by treating it with proteinase K, trypsin, and α-chymotrypsin (each at 1 mg/mL, Sigma-Aldrich, Warren, MI, USA), representing different proteolytic mechanisms. The AMP’s compatibility with surfactants was assessed by incubating it with 1% SDS, 1% CTAB, and 1% Triton X-100 (AppliChem GmbH, Darmstadt, Germany). Additionally, the effect of pH variations on AMP integrity was tested by adjusting the solution to pH 1, 4, 8, 10, and 14. The pH was neutralized to the original pH after incubation before conducting antibacterial activity tests. […] Stability data were expressed as residual activity percentages relative to the untreated sample (mean ± SD), and statistical significance was evaluated using two-way ANOVA and Tukey’s post hoc test, with a p-value < 0.05 considered significant.

[10] = DPPH radical-scavenging assay; settings: 0.1 mM DPPH, 25 °C, 30 min in darkness, absorbance 517 nm; mean ± SD, n = 3
Procedure: A 200 μL sample or ascorbic acid (Gammaco Ltd., Bangkok, Thailand) was added to 2 mL of 0.1 mM DPPH solution (Merck Ltd., Bangkok, Thailand) and incubated at 25 °C in darkness for 30 min. The DPPH color change from purple to pale yellow was observed, and the absorbance at 517 nm was measured using a UV–visible spectrophotometer.

MRSA strain 2468 [11] = experiment: Scanning electron microscopy of treated cells; format: cell-based, Staphylococcus aureus; settings: 1× MIC, 16 h / 18 h (figure legend), 30,000× magnification
Excerpt: (§3) SEM was used to examine morphological alterations in the bacterial cells. […] This appearance reflected their natural cellular structure.
(§4) Figure 5 SEM images captured at 30,000× magnification. […] The non-treatment condition served as a negative control.

S. aureus TISTR 517 [12] = experiment: Scanning electron microscopy of treated cells; format: cell-based, Staphylococcus aureus; settings: 1× MIC, 16 h / 18 h (figure legend), 30,000× magnification
Excerpt: as §3, §4

[13] = 100 µL of each dilution spread on MH agar, 37 °C 24 h, triplicate, read-out: MBC
[14] = broth microdilution, CAMHB, 37 °C 24 h, triplicate, read-out: MIC
[15] = 100 µL of each dilution spread on MH agar, 37 °C 24 h, triplicate
[16] = broth microdilution, CAMHB, 37 °C 24 h, triplicate
[17] = Staphylococcus aureus, TISTR517, 24 h

| Molecule | MBC (S. aureus TISTR 517 [4]; [15]) [µg/mL] | MIC (S. aureus TISTR 517 [4]; [16]) [µg/mL] | Zone of Inhibition (MRSA strain 2468 [5]) [mm] | Zone of Inhibition (S. aureus TISTR 517 [6]) [mm] | Zone of Inhibition (MRSA strain 142 [7]) [mm] | Zone of Inhibition (MRSA strain 1096 [8]) [mm] | Zone of Inhibition (P. aeruginosa TISTR 357) [mm] | Zone of Inhibition (E. coli TISTR 887) [mm] | Zone of Inhibition (K. pneumoniae TISTR 1383) [mm] | Antibacterial activity against MRSA Strain 2468 of surfactant alone, on the scale of FN33 AMP activity retention (%) (MRSA strain 2468 [9]; 1 h) | Antibacterial activity against MRSA Strain 2468 of surfactant alone, on the scale of FN33 AMP activity retention (%) (MRSA strain 2468 [9]; 6 h) | Antibacterial activity against MRSA Strain 2468 of surfactant alone, on the scale of FN33 AMP activity retention (%) (MRSA strain 2468 [9]; 12 h) | further results |
| --- | --- | --- | --- | --- | --- | --- | --- | --- | --- | --- | --- | --- | --- |
| CO[C@@]1(NC(=O)Cc2cccs2)C(=O)N2C(C(=O)O)=C(COC(N)=O)CS[C@@H]21 [Cefoxitin] | 2 (≈ 4.68 µM) | 2 (≈ 4.68 µM) | 0.00 ± 0.00 | 35.87 ± 0.46 | 0.00 ± 0.00 | 0.00 ± 0.00 | 0.00 ± 0.00 | 35.12 ± 1.04 | 19.67 ± 0.88 |  |  |  | MBC (MRSA strain 2468 [1]; [13]): > 64 µg/mL; MIC (MRSA strain 2468 [1]; [14]): > 64 µg/mL; MBC (MRSA strain 142 [2]; [13]): > 64 µg/mL; MIC (MRSA strain 142 [2]; [14]): > 64 µg/mL; MBC (MRSA strain 1096 [3]; [13]): > 64 µg/mL; MIC (MRSA strain 1096 [3]; [14]): > 64 µg/mL; MBC (MRSA strains; text statement for the MRSA strains (142, 1096, 2468) together, read-out: MBC): > 64 µg/mL; MIC (MRSA strains; text statement for the MRSA strains (142, 1096, 2468) together, read-out: MIC): > 64 µg/mL; MBC (S. aureus TISTR 517 [4]; Staphylococcus aureus, TISTR517, 100 µL of each dilution spread on MH agar, 37 °C 24 h, triplicate, read-out: MBC): 2 µg/mL (≈ 4.68 µM); MIC (S. aureus TISTR 517 [4]; Staphylococcus aureus, TISTR517, broth microdilution, CAMHB, 37 °C 24 h, triplicate, read-out: MIC): 2 µg/mL (≈ 4.68 µM) |
| CCCCCCCCCCCCCCCC[N+](C)(C)C [CTAB, cetyltrimethylammonium bromide, reference compound] |  |  |  |  |  |  |  |  |  | 98.62 ± 0.69 | 98.89 ± 1.10 | 98.42 ± 0.72 |  |
| O=C1O[C@H]([C@@H](O)CO)C(O)=C1O [Ascorbic acid, ascorbic acid, reference compound] |  |  |  |  |  |  |  |  |  |  |  |  | IC50 (DPPH radical scavenging) [10]: 6.78 ± 1.58 µg/mL (≈ 38.5 µM) |
| Triton X-100 [reference compound] |  |  |  |  |  |  |  |  |  | 0.00 ± 0.00 | 0.00 ± 0.00 | 0.00 ± 0.00 |  |
| CN[C@H](CC(C)C)C(=O)N[C@H]1C(=O)N[C@@H](CC(N)=O)C(=O)N[C@H]2C(=O)N[C@H]3C(=O)N[C@H](C(=O)N[C@H](C(=O)O)c4cc(O)cc(O)c4-c4cc3ccc4O)[C@H](O)c3ccc(c(Cl)c3)Oc3cc2cc(c3O[C@@H]2O[C@H](CO)[C@@H](O)[C@H](O)[C@H]2O[C@H]2C[C@](C)(N)[C@H](O)[C@H](C)O2)Oc2ccc(cc2Cl)[C@H]1O [Vancomycin] | 2 (≈ 1.38 µM) | 2 (≈ 1.38 µM) | 24.64 ± 1.02 | 23.37 ± 1.27 | 24.13 ± 1.27 | 24.38 ± 0.51 | 0.00 ± 0.00 | 0.00 ± 0.00 | 0.00 ± 0.00 |  |  |  | morphological changes under SEM (MRSA strain 2468 [11]): complete cell lysis; morphological changes under SEM (S. aureus TISTR 517 [12]): complete cell lysis; MBC (MRSA strain 2468 [1]; 24 h): 2 µg/mL (≈ 1.38 µM); MIC (MRSA strain 2468 [1]; 24 h): 2 µg/mL (≈ 1.38 µM); MBC (MRSA strain 142 [2]; 24 h): 2 µg/mL (≈ 1.38 µM); MIC (MRSA strain 142 [2]; 24 h): 2 µg/mL (≈ 1.38 µM); MBC (MRSA strain 1096 [3]; 24 h): 2 µg/mL (≈ 1.38 µM); MIC (MRSA strain 1096 [3]; 24 h): 2 µg/mL (≈ 1.38 µM); MBC (MRSA strains; MRSA): 2 µg/mL (≈ 1.38 µM); MIC (MRSA strains; MRSA): 2 µg/mL (≈ 1.38 µM); MBC (S. aureus TISTR 517 [4]; [17]): 2 µg/mL (≈ 1.38 µM); MIC (S. aureus TISTR 517 [4]; [17]): 2 µg/mL (≈ 1.38 µM) |
| CCCCCCCCCCCCOS(=O)(=O)[O-].[Na+] [SDS, sodium dodecyl sulfate, reference compound] |  |  |  |  |  |  |  |  |  | 110.10 ± 0.84 | 109.30 ± 0.56 | 108.93 ± 0.57 |  |
